Laboratory results: ChEMBL document CHEMBL5634157, “Design and synthesis of certain 7-Aryl-2-Methyl-3-Substituted Pyrazolo{1,5-a}Pyrimidines as multikinase inhibitors” (Eur J Med Chem, 2023)
The source made the active and inactive calls. The rule behind the calls is not given here.

Columns and labels:
Activin receptor type-1 = target: T1, Activin receptor type-1 (Homo sapiens, UniProt Q04771); test: Inhibition of human recombinant GST-tagged-ALK2 (147 to 509 residues) using Casein as substrate in presence of ATP by ADP-Glo luminescence assay
T1 sequence (Q04771 whole entry): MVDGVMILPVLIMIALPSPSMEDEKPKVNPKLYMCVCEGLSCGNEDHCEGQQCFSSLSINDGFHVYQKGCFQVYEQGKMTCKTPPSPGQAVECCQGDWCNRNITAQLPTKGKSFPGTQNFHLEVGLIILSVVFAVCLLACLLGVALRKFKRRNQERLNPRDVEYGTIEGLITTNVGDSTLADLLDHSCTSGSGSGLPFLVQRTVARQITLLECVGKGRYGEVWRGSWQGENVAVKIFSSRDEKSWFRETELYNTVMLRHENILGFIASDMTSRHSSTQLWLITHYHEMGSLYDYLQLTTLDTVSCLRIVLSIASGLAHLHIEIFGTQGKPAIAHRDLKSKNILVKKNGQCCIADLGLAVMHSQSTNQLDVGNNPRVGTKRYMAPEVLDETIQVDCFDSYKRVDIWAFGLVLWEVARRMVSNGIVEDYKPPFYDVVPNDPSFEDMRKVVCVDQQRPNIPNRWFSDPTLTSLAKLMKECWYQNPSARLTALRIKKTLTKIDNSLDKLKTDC

[1] = target: T2, Activin receptor type-1 (Homo sapiens) (UniProt Q04771); test: Inhibition of ALK2 in human EKVX cells by Western blotting analysis; type: cell-based
T2 sequence (whole entry): T1 sequence (Q04771 whole entry)

[2] = target: Epidermal growth factor receptor (Homo sapiens, UniProt P00533); test: Inhibition of human recombinant GST tagged-EGFR using Poly (Glu,Tyr) 4:1 as substrate in presence of ATP by ADP-Glo luminescence kinase assay
Chain of Epidermal growth factor receptor (P00533 whole entry): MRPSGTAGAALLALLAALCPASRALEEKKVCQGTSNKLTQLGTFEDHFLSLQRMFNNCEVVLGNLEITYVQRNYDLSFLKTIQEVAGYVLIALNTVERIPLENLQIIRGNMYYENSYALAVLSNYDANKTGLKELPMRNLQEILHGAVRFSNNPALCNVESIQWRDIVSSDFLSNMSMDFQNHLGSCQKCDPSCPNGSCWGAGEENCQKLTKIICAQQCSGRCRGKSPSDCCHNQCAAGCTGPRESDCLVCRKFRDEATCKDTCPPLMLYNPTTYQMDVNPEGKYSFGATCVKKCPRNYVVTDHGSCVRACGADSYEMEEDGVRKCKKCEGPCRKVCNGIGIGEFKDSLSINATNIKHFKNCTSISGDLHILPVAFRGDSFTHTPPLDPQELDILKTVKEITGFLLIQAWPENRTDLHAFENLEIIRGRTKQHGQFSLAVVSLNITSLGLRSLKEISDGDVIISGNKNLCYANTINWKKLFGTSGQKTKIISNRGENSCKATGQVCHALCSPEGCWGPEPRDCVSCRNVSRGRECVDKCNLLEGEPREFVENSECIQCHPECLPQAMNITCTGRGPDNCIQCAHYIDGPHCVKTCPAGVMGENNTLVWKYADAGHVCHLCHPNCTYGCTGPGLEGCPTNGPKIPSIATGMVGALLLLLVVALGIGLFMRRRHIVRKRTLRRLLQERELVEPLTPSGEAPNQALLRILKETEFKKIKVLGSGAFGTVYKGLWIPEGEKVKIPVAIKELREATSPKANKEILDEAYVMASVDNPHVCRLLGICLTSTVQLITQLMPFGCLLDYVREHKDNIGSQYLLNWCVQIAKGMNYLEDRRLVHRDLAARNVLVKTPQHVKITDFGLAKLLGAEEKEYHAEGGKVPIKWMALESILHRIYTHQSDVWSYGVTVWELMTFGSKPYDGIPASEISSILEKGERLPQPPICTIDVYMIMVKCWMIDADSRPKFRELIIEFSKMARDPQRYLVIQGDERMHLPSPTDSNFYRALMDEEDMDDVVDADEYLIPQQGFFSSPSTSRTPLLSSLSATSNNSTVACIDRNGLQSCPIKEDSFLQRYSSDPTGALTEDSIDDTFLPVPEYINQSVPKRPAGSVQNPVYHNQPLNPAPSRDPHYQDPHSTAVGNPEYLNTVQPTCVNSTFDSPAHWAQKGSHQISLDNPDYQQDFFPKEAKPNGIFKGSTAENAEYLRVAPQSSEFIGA

[3] = target: Casein kinase II subunit alpha (Homo sapiens, UniProt P68400); test: Inhibition of human recombinant full-length C-terminal His tagged-CK2 alpha expressed in Escherichia coli using tetra-methylbenzidine as substrate in presence of ATP by ELISA analysis
Chain of Casein kinase II subunit alpha (P68400 whole entry): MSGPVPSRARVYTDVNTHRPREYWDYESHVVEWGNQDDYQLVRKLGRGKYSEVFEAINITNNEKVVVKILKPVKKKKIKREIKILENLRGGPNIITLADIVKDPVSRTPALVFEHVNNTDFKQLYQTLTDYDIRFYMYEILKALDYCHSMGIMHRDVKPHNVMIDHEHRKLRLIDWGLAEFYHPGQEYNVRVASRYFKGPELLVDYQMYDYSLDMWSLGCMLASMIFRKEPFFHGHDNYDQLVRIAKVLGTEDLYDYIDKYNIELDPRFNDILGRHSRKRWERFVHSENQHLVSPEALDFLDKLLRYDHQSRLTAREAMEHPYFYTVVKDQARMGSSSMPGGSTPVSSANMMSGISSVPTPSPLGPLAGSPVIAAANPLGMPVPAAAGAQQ

[4] = target: T3, Serine/threonine-protein kinase Chk1 (Homo sapiens, UniProt O14757); test: Inhibition of human recombinant CHK1 using CHKtide as substrate in presence of ATP by ADP-Glo luminescence kinase assay
T3 sequence (O14757 whole entry): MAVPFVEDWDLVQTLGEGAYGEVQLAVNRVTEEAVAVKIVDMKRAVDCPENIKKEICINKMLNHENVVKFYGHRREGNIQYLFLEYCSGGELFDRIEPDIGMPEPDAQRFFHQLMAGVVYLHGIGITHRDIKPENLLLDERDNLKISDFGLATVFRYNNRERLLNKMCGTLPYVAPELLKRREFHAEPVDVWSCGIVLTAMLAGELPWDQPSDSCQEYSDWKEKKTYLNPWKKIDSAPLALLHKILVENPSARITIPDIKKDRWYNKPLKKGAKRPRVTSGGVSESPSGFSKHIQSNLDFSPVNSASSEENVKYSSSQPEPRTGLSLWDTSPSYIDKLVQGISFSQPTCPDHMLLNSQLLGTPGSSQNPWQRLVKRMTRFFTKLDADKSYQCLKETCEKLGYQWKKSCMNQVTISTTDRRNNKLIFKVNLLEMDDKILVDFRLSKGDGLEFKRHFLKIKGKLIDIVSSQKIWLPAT

[5] = target: Cyclin-dependent kinase 2 (Homo sapiens, UniProt P24941); test: Inhibition of human CDK2 by ELISA analysis
[6] = target: Proto-oncogene tyrosine-protein kinase ROS (Homo sapiens, UniProt P08922); test: Inhibition of human recombinant GST tagged-ROS1 using IRF-1Rtide as substrate in presence of ATP by ADP-Glo luminescence kinase assay
[7] = target: Mast/stem cell growth factor receptor Kit (Homo sapiens, UniProt P10721); test: Inhibition of human recombinant N-terminal GST tagged-c-KIT (544 to end residues) expressed in baculovirus infected Sf9 cells using Poly (Glu,Tyr) 4:1 as substrate in presence of ATP by ADP-Glo luminescence kinase assay
Chain of Mast/stem cell growth factor receptor Kit (P10721 whole entry): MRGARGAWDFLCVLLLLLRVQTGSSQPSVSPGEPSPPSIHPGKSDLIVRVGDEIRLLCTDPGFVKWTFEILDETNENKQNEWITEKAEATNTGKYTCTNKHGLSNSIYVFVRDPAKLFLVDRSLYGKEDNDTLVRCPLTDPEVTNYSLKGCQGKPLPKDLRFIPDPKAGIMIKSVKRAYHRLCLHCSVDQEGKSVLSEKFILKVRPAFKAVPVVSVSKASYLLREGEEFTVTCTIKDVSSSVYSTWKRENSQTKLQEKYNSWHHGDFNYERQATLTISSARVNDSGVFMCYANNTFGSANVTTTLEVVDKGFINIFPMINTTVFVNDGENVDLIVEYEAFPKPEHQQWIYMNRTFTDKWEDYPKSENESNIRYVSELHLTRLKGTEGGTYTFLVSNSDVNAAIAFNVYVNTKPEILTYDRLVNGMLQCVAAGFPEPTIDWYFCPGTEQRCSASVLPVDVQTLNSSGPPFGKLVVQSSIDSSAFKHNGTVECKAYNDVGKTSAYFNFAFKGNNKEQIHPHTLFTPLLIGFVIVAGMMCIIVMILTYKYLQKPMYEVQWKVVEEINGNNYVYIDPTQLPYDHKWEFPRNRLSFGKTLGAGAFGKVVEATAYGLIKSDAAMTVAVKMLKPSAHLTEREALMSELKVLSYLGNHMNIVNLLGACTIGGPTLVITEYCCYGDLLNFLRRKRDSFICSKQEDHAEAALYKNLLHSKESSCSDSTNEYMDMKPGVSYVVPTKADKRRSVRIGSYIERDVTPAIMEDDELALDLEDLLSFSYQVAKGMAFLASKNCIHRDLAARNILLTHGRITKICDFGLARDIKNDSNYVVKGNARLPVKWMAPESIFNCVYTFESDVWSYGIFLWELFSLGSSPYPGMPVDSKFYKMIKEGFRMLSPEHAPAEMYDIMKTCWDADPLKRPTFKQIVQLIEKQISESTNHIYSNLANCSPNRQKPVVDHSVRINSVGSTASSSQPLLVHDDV

[8] = target: Proto-oncogene tyrosine-protein kinase receptor Ret (Homo sapiens, UniProt P07949); test: Inhibition of human recombinant GST tagged-RET using IRF-1Rtide as substrate in presence of ATP by ADP-Glo luminescence kinase assay
Chain of Proto-oncogene tyrosine-protein kinase receptor Ret (P07949 whole entry): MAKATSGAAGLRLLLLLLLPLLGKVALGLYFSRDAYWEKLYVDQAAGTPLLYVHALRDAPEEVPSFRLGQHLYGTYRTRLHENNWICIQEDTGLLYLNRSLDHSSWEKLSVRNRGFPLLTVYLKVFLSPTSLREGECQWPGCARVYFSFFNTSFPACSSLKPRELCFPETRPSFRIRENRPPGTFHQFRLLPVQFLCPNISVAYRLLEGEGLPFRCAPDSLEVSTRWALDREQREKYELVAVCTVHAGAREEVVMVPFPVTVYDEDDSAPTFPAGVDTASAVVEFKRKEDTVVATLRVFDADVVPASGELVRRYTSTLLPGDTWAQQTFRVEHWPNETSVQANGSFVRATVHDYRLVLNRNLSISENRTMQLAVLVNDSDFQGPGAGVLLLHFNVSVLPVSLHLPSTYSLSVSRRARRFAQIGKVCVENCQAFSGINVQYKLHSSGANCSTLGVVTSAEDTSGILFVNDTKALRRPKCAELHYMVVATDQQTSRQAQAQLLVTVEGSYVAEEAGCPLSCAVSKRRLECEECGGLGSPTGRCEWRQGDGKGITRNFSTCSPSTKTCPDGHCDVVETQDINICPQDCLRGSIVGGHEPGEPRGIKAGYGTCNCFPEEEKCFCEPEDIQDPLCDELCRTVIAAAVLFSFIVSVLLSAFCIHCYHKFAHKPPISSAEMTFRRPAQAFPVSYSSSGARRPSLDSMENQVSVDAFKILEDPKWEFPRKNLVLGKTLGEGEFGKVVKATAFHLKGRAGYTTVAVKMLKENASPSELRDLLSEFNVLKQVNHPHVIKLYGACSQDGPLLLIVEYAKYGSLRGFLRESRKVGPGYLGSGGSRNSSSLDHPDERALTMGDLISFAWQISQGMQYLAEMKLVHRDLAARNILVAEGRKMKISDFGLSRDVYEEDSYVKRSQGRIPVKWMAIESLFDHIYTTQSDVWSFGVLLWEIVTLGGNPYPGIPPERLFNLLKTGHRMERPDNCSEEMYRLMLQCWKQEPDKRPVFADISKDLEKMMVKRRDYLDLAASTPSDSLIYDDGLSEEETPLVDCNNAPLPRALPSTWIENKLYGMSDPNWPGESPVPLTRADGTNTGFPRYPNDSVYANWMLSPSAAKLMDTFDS

[9] = Inhibition of human recombinant FLT3 using myelin basic protein as substrate in presence of ATP by ADP-Glo luminescence kinase assay
[10] = Cytotoxicity against human MCF-10A cells assessed as inhibition of cell viability by MTT assay; type: toxicity, cell-based
[11] = Cytotoxicity against human FHCs assessed as inhibition of cell viability by MTT assay; type: toxicity, cell-based; details: FHC cells
[12] = target: Serine/threonine-protein kinase pim-1 (Homo sapiens, UniProt P11309); test: Inhibition of human recombinant full-length PIM1 expressed in baculovirus infected Sf9 cells using S6K as substrate in presence of ATP by ADP-Glo luminescence kinase assay
Chain of Serine/threonine-protein kinase pim-1 (P11309 whole entry): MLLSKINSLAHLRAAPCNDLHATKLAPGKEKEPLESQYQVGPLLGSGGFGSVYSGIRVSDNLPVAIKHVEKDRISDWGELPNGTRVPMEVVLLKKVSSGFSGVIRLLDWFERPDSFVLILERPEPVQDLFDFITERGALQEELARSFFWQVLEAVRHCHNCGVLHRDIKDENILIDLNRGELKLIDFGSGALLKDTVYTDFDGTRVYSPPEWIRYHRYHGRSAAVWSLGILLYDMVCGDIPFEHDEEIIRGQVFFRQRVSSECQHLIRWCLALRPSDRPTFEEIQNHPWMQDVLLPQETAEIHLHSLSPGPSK

KM12 = test: Antiproliferative activity against human KM12 cells assessed as inhibition of cell viability by MTT assay
EKVX = test: Antiproliferative activity against human EKVX cells assessed as inhibition of cell viability by MTT assay

| IC50 (Activin receptor type-1) | IC50 [3] | IC50 [4] | IC50 [5] | Structure (SMILES) | also measured |
| --- | --- | --- | --- | --- | --- |
| 0.354 µM | – | – | – | Cc1nn2c(-c3ccc(Br)cc3)ccnc2c1C(N)=O | – |
| – | 0.072 µM | 0.085 µM | 1.73 µM | Cc1nn2c(-c3ccccc3)ccnc2c1/C(N)=N/O | – |
| – | 0.217 µM | 0.327 µM | 1.07 µM | Cc1nn2c(-c3ccc(Cl)cc3)ccnc2c1/C(N)=N/O | – |
| 0.055 µM | – | – | – | Cc1ccc(-c2ccnc3c(C#N)c(C)nn23)cc1 | – |

Continued, compound first:

| Structure (SMILES) | IC50 (Activin receptor type-1) | IC50 [3] | IC50 [4] | IC50 [5] | also measured |
| --- | --- | --- | --- | --- | --- |
| Cc1nn2c(-c3ccc(Cl)cc3)ccnc2c1C#N | 0.235 µM | – | – | – | – |
| C[C@H]1Oc2cc(cnc2N)-c2c(nn(C)c2C#N)CN(C)C(=O)c2ccc(F)cc21 [LORLATINIB] | 0.029 µM | – | – | – | inhibition [1]: Active |
| Cc1nn2c(-c3ccc(Cl)cc3)ccnc2c1C(N)=O | 0.182 µM | – | – | – | – |
| COc1ccc(-c2ccnc3c(-c4noc(C)n4)c(C)nn23)cc1 | 0.037 µM | 0.093 µM | 0.156 µM | 0.71 µM | IC50 [2]: 0.106 µM; IC50 [6]: 0.759 µM; IC50 [7]: 0.059 µM; IC50 [8]: 0.537 µM |
| Cn1cc(-c2cnn3c(N)cc([C@@H]4CCCNC4)nc23)cn1 | – | – | 0.034 µM | – | – |
| Cc1nn2c(-c3ccc(Br)cc3)ccnc2c1C#N | 0.105 µM | – | – | – | – |
| CCc1nc(C(N)=O)c(Nc2ccc(N3CCC(N4CCN(C)CC4)CC3)c(OC)c2)nc1NC1CCOCC1 [GILTERITINIB] | – | – | – | – | IC50 [9]: 0.064 µM |
| Cc1nc(-c2c(C)nn3c(-c4ccccc4)ccnc23)no1 | – | 0.289 µM | 0.119 µM | 1.29 µM | – |
| COc1cccc2c1C(=O)c1c(O)c3c(c(O)c1C2=O)C[C@@](O)(C(=O)CO)C[C@@H]3O[C@H]1C[C@H](N)[C@H](O)[C@H](C)O1 [DOXORUBICIN] | – | – | – | – | IC50 [10]: 13.4 µM; IC50 [11]: 17.6 µM |
| Cc1nn2c(-c3ccc(Br)cc3)ccnc2c1/C(N)=N/O | – | 0.122 µM | 0.074 µM | 0.59 µM | – |
| O=c1c(O)c(-c2cc(O)c(O)c(O)c2)oc2cc(O)cc(O)c12 [MYRICETIN] | – | – | – | – | IC50 [12]: 4.06 µM |
| O=C(Nc1cnn2ccc(N3CCC[C@@H]3c3cc(F)ccc3F)nc12)N1CC[C@H](O)C1 [LAROTRECTINIB] | – | – | – | – | IC50 (KM12): 4.68 µM; IC50 (EKVX): 7.33 µM |
